“And” between values parts separate entries of the source, which are not always exact repeats. Identical values can stand only once.
Columns and labels:
soybean lipoxygenase = molecular target: T1, soybean lipoxygenase (Glycine max, UniProt P08170); assay: Soybean lipoxygenase inhibition in vitro; assay type: biochemical; conditions: for inhibition at 100 µM: read-out: %LOX @ 100μΜ; for %LOX @ 100μΜ: 100 μM compound; for IC50: read-out: LOX IC50 μΜ
T1 construct: purchased Sigma Chemical, Co. (St. Louis, MO, USA)
T1 sequence (P08170 1-839): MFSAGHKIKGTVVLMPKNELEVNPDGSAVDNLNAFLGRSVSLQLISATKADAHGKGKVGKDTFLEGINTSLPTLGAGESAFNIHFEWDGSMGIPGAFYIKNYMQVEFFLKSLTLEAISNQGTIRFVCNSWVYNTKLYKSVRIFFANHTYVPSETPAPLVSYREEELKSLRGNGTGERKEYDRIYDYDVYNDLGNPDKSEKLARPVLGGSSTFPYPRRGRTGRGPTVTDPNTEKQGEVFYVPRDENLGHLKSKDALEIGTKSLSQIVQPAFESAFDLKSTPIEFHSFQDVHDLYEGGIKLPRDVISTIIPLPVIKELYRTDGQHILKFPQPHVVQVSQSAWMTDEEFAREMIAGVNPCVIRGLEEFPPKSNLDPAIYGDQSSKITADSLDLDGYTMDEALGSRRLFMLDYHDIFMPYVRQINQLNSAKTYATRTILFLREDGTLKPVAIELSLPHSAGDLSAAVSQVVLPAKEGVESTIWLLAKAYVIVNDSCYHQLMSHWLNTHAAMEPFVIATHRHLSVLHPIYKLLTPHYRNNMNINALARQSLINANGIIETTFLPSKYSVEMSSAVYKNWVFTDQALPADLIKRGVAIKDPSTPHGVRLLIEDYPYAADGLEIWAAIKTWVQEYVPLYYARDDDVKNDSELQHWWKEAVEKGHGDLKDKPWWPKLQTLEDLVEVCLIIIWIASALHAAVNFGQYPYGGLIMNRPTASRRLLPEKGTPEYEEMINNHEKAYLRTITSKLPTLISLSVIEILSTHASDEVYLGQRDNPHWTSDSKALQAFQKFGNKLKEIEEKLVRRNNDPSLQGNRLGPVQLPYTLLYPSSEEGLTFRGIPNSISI
Experimental: 2.2.2.4 Soybean lipoxygenase inhibition study in vitro [14]
In vitro study was evaluated as reported previously. The tested compounds dissolved in ethanol were incubated at room temperature with sodium linoleate (0.1 mM) and 0.2 ml of enzyme solution (1/9 x10^-4 w/v in saline). […] Several concentrations were used for the determination of IC50 values (Table 5).
LO is the key enzyme in leukotriene biosynthesis. Leukotrienes derived from the biotransformation of arachidonic acid catalyzed by 5-lipoxygenase (5-LO), are important inflammatory mediators implicated in several diseases. LOs play a role in membrane lipid peroxidation by forming hydroperoxides in the lipid bilayer. […] Most of the LO inhibitors are antioxidants or free radical scavengers, since lipoxygenation occurs via a carbon-centered radical. The evaluation of the novel coumarin hybrids against soybean lipoxygenase LO was accomplished by the UV-based enzyme assay.

[1] = Inhibition of linoleic acid lipid peroxidation (AAPH); conditions: 100 μM compound, 37°C
Experimental: 2.2.2.3 Inhibition of linoleic acid lipid peroxidation
Production of conjugated diene hydroperoxide by oxidation of linoleic acid sodium salt in an aqueous solution was monitored at 234 nm. 2,2’-Azobis(2-amidinopropane) dihydrochloride (AAPH) was used as a free radical initiator. 10 μl of the 16 mM linoleic acid sodium salt solution was added to the UV cuvette containing 0.93 ml of 0.05 M phosphate buffer, pH 7.4 prethermostated at 37°C. The oxidation reaction was initiated at 37°C under air by the addition of 50 μl of 40 mM AAPH solution. Oxidation was carried out in the presence of 10 μl of the examined compounds (stock solution in DMSO). In the assay without antioxidant, lipid oxidation was measured in the presence of the same level of DMSO. The rate of oxidation at 37°C was monitored by recording the increase in absorption at 234 nm caused by conjugated diene hydroperoxides (Table 5). Trolox was used as a standard.
Anti-lipid peroxidation activity. The water-soluble azo compound AAPH has been extensively used as a clean and controllable source of thermally produced alkyl peroxyl free radicals, through spontaneous thermal decomposition. […] In the AAPH assay, the highly reactive alkylperoxyl radicals are intercepted mainly by a hydrogen atom transfer (HAT) from the antioxidant.

[2] = Reducing activity of the stable radical DPPH; conditions: 100 μM compound, after 20 min
Experimental: 2.2.2.1 Determination of the reducing activity of the stable radical 1, 1-diphenyl-picrylhydrazyl (DPPH)
To a solution of DPPH (100μM) in absolute ethanol an equal volume of the compounds dissolved in ethanol was added. As control solution ethanol was used. The concentration of the solutions of the compounds was 100μM. After 20 and 60 min at room temperature the absorbance was recorded at 517 nm (Table 5). NDGA was used as a standard.
The compounds were studied for their antioxidant activity by the use of the stable 2,2-diphenyl-1-picrylhydrazyl radical (DPPH) at concentration 0.1mM after 20 min. […] This purple colour generally disappears in the presence of an antioxidant. The reduction of absorbance is a measure of the free DPPH due to the action of the antioxidant. The antioxidant activity was expressed as the RA% (Reducing Activity). […] Within the group of derivatives 4 the presence of the morpholinyl or piperidinyl rings at position A as well as the carbonyl group at position B, hinder the interaction of the compounds to the free stable radical DPPH.

Structure (SMILES) | melting point [°C] | inhibition at 100 µM (soybean lipoxygenase) [%] | LP % @ 100μΜ (inhibition of lipid peroxidation) [1] | %LOX @ 100μΜ (soybean lipoxygenase) | RA% @ 100μΜ (reducing activity, DPPH) [2] | IC50 (soybean lipoxygenase)
Cc1cc(=O)oc2cc(OCc3cc(Cn4cnc5c(N6CCCCC6)ncnc54)no3)ccc12 | 165 to 167 |  |  |  |  | 
O=c1ccc2ccc(OCC3=NOC(n4cnc5c(N6CCCC6)ncnc54)C3)cc2o1 (centres unmarked) | 200 to 202 |  |  |  |  | 
Cc1cc(=O)oc2ccc(OC(=O)C3CC(Cn4cnc5c(N6CCCC6)ncnc54)=NO3)cc12 (centres unmarked) | 192 to 193 |  |  |  |  | 
Cc1cc(=O)oc2ccc(OCC3CC(Cn4cnc5c(N6CCCCC6)ncnc54)=NO3)cc12 (centres unmarked) [4a, 4-methyl-6-({3-[(6-piperidin-1-yl-9H-purin-9-yl)methyl]-4,5-dihydroisoxazol-5-yl}methoxy)-2H-chromen-2-one] | 180 to 182 | 6 | 63% |  |  | 
Cc1cc(=O)oc2cc(OCC3CC(Cn4cnc5c(N6CCOCC6)ncnc54)=NO3)ccc12 (centres unmarked) [4d] | 194 to 196 | 44.5 | 21% |  |  | 
Cc1cc(=O)oc2cc(OCC3CC(Cn4cnc5c(N6CCCC6)ncnc54)=NO3)ccc12 (centres unmarked) [4e] | 190 to 192 |  | 65% | no |  | 
O=c1cc(OCC2CC(Cn3cnc4c(N5CCOCC5)ncnc43)=NO2)c2ccccc2o1 (centres unmarked) [4g] | 158 to 160 | 10 | 16% | 10% |  | 
Cc1cc(=O)oc2ccc(OC(=O)C3CC(Cn4cnc5c(N6CCCCC6)ncnc54)=NO3)cc12 (centres unmarked) [4k, 4-Methyl-2-oxo-2H-chromen-6-yl 3-[(6-piperidin-1-yl-9H-purin-9-yl)methyl]-4,5-Dihydroisoxazole-5-Carboxylate] | 179 to 181 |  | 57% |  | 12% | 10 µM
Cc1cc(=O)oc2ccc(OC(=O)C3CC(Cn4cnc5c(N6CCOCC6)ncnc54)=NO3)cc12 (centres unmarked) [4l] | 188 to 189 |  | 37.5% |  | 12% | 61 µM
Cc1cc(=O)oc2ccc(OCC3=NOC(Cn4cnc5c(N6CCCCC6)ncnc54)C3)cc12 (centres unmarked) [11a, 4-methyl-6-({5-[(6-piperidin-1-yl-9H-purin-9-yl)methyl]-4,5-dihydroisoxazol-3-yl}methoxy)-2H-chromen-2-one] | 148 to 150 |  | 44% | no |  | 
O=c1ccc2ccc(OCC3=NOC(Cn4cnc5c(N6CCCCC6)ncnc54)C3)cc2o1 (centres unmarked) [11g] | 184 to 185 |  | no | no |  | 
Cc1cc(=O)oc2cc(OCc3cc(Cn4cnc5c(N6CCOCC6)ncnc54)no3)ccc12 [13d] | 179 to 180 |  | no | no | no | 
O=c1ccc2ccc(OCc3cc(Cn4cnc5c(N6CCOCC6)ncnc54)no3)cc2o1 [13f] | 174 to 175 | 25 | 23% |  | no | 
O=c1ccc2ccc(OCc3cc(Cn4cnc5c(N6CCCC6)ncnc54)no3)cc2o1 [13g] | 176 to 178 |  | 43% |  | no | 62.5 µM and 62 µM
O=c1cc(OCc2cc(Cn3cnc4c(N5CCCCC5)ncnc43)no2)c2ccccc2o1 [13h] | 161 to 163 |  | 86% |  | no | 55 µM
O=c1ccc2ccc(OCc3cc(Cn4cnc5c(N6CCCCC6)ncnc54)on3)cc2o1 [15a, 7-({5-[(6-piperidin-1-yl-9H-purin-9-yl)methyl]isoxazol-3-yl}methoxy)-2H-chromen-2-one] | 140 to 142 |  |  |  | no | 55 µM
CC(Cc1ccc(O)c(O)c1)C(C)Cc1ccc(O)c(O)c1 (centres unmarked) [NDGA, nordihydroguairetic acid, reference compound] |  |  |  |  | 87% | 

— PMC5748833, “Synthesis and Biological Evaluation of Novel Hybrid Molecules Containing Purine, Coumarin and Isoxazoline or Isoxazole Moieties” (The Open Medicinal Chemistry Journal, 2017)
